Source: the supplement of paper PMC10307832

Columns and labels:
Test in all cases: relative viability (nuclei count vs DMSO), 5 days (fraction); higher = more cells survive
Ricolinostat + Olaparib = compound: O=C(CCCCCCNC(=O)c1cnc(N(c2ccccc2)c2ccccc2)nc1)NO [Ricolinostat] + O=C(c1cc(Cc2n[nH]c(=O)c3ccccc23)ccc1F)N1CCN(C(=O)C2CC2)CC1 [Olaparib] (partner 8 µM)
Outline: (§1)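 Lung cancer cell lines in 1536-well plates got either a single drug or a fixed anchor-drug dose together with five library-drug doses (not always all listed) in √10 steps, by pin tool, on the day after seeding. Nuclei were counted after 5 days, and relative viability is the treated-to-vehicle ratio of nuclei counts. Values are medians of duplicate plates.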

[1] = compound: C1=CC=C(C(=C1)C2=CC=C(C=C2)C3=CSC4=C3C(=C(C(=O)N4)C#N)O)O + NC(=O)Nc1cc(-c2cccc(F)c2)sc1C(=O)N[C@H]1CCCNC1 [AZD7762] (partner 0.2 µM)
Outline: as §1

[2] = compound: C1=CC=C(C(=C1)C2=CC=C(C=C2)C3=CSC4=C3C(=C(C(=O)N4)C#N)O)O + CC(C)C[C@H](NC(=O)[C@H](Cc1ccccc1)NC(=O)c1cnccn1)B(O)O [Bortezomib] (partner 0.002 µM)
Outline: as §1

[3] = compound: O=C(CCCCCCNC(=O)c1cnc(N(c2ccccc2)c2ccccc2)nc1)NO [Ricolinostat] + CC(C)C[C@H](NC(=O)[C@H](Cc1ccccc1)NC(=O)c1cnccn1)B(O)O [Bortezomib] (partner 0.002 µM)
Outline: as §1

[4] = compound: O=C(CCCCCCNC(=O)c1cnc(N(c2ccccc2)c2ccccc2)nc1)NO [Ricolinostat] + Nc1ncn([C@H]2C[C@H](O)[C@@H](CO)O2)c(=O)n1 [Decitabine] (partner 2 µM)
Outline: as §1

NCI-H1792
relative viability (Ricolinostat + Olaparib; first compound 0.253 µM): 0.391 | relative viability (Ricolinostat + Olaparib; first compound 0.8 µM): 0.284 | relative viability (Ricolinostat + Olaparib; first compound 2.53 µM): 0.041 | relative viability ([1]; first compound 0.253 µM): 0.953 | relative viability ([1]; first compound 0.8 µM): 0.329 | relative viability ([1]; first compound 2.53 µM): 0.551 | relative viability ([1]; first compound 8 µM): 0.532 | relative viability ([2]; first compound 0.253 µM): 0.866 | relative viability ([2]; first compound 0.8 µM): 1.1 | relative viability ([2]; first compound 2.53 µM): 1.03 | relative viability ([2]; first compound 8 µM): 0.425 | relative viability ([3]; first compound 0.08 µM): 0.899 | relative viability ([3]; first compound 0.253 µM): 0.926 | relative viability ([3]; first compound 0.8 µM): 0.944 | relative viability ([3]; first compound 2.53 µM): 0.973 | relative viability ([4]; first compound 0.253 µM): 0.484 | relative viability ([4]; first compound 0.8 µM): 0.492 | relative viability ([4]; first compound 2.53 µM): 0.366
